Measurements published in US7045665B2, “Glucopyranosyloxybenzylbenzene derivatives, medicinal compositions containing the same and intermediates for the preparation of the derivatives” (Kissei Pharmaceutical Co., Ltd., priority 2000, dated 2006).

Experiments:
[1] = test system: urinary glucose excretion; experiment: Assay for the facilitatory effect on urinary glucose excretion; type: in vivo; details: SD rats, 1 mg/kg intravenous, oral glucose 2 g/kg; in 24 hours per 200 g of body weight
Method: Assay for the Facilitatory Effect on Urinary Glucose Excretion
As experimental animal, overnight fasted SD rats (SLC., male, 7 weeks of age, 180–240 g) were used. Ten mg of test compound was suspended or dissolved in 300 μL of ethanol and then dissolved by adding of 1.2 mL of polyethylene glycol 400 and 1.5 mL of saline, and then 3.3 mg/mL solution was prepared. Three hundred μL of this solution was dissolved with 2.7 mL of the solution for dilution (saline:polyethylene glycol 400:ethanol=5:4:1) and then 0.33 mg/mL solution was prepared. After the body weights of rats were measured, the solution of test compound was intravenously injected to the tail vein at the dose of 3 mL/kg (1 mg/kg). For control, just only the solution (saline:polyethylene glycol 400:ethanol=5:4:1) was intravenously injected to the tail vein at the dose of 3 mL/kg. Immediately after intravenous injection to the tail vein, 200 g/L of glucose solution was orally administered to the rats at the dose of 10 mL/kg (2 g/kg). The intravenous injection to the tail vein was performed with 26 G injection needle and 1 mL syringe. The oral administration was performed with gastric tube for rat and 2.5 mL syringe. The head count in one group was 2 or 3. Collection of urine was performed in metabolic cage after the oral administration of glucose was finished. The sampling time for collection of urine was 24 hours after the oral administration of glucose. After the collection of urine was finished, the urine volume was recorded and the urinary glucose concentration was measured. The glucose concentration was measured with a kit for laboratory test: Glucose B-Test WAKO (Wako Pure Chemical Industries, Ltd.). The amount of urinary glucose excretion in 24 hours per 200 g of body weight was calculated from urine volume, urinary glucose concentration and body weight.

human SGLT2 = molecular target: T1, human SGLT2 (Homo sapiens, UniProt P31639, I433V); experiment: Assay for inhibitory effect on human SGLT2 activity (uptake of methyl-α-D-glucopyranoside); type: cell-based; details: COS-7 cells transiently expressing human SGLT2; uptake of methyl-α-D-(U-14C)glucopyranoside, 37° C., 2 hours
T1 construct: expressed in transfected cells; host or cells: COS-7 cells (RIKEN CELL BANK RCB0539), transient, electroporation
T1 sequence (P31639 1-672 I433V): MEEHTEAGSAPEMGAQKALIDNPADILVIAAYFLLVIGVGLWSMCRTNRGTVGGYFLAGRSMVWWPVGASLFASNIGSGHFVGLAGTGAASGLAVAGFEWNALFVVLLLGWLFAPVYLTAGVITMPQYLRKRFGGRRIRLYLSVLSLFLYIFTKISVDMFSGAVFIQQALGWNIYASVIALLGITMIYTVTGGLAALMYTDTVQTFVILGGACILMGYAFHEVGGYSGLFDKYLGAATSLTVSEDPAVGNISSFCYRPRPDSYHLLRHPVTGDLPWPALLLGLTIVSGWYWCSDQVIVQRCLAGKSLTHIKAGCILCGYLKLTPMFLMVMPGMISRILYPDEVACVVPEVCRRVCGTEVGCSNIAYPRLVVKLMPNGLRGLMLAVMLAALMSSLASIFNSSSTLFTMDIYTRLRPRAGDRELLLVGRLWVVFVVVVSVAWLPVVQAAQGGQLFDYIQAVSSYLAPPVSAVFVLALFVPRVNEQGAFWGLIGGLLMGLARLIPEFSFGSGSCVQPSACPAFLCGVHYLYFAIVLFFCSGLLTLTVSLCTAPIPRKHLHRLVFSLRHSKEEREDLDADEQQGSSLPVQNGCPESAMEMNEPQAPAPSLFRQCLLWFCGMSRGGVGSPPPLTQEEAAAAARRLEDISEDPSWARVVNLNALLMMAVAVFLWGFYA
Method: Assay for Inhibitory Effect on Human SGLT2 Activity
Preparation of the cDNA library for PCR amplification was performed by reverse transcription of a total RNA deprived from human kidney (Ori gene) with oligo dT as the primer, using […] Preamplification System (Gibco-BRL: LIFE TECHNOLOGIES). […] The amplified DNA fragment was ligated into pCR-Blunt (Invitrogen), a vector for cloning, according to standard method of the kit. […] The amplified DNA fragment was digested with restriction enzymes, Xho I and Hind III, and then purified with Wizard Purification System (Promega).
KL29, the plasmid coding human SGLT2, was transfected into COS-7 cells (RIKEN CELL BANK RCB0539) by electroporation. Electroporation was performed with GENE PULSER II (Bio-Rad Laboratories) under the condition: 0.290 kV, 975 μF, 2×10^6 cells of COS-7 cell and 20 μg of KL29 in 500 μL of OPTI-MEM I medium (Gibco-BRL: LIFE TECHNOLOGIES) in the 0.4 cm type cuvette. After the gene transfer, the cells were harvested by centrifugation and resuspended with OPTI-MEM I medium (1 mL/cuvette). To each well in 96-wells plate, 125 μL of this cell suspension was added.

ICR mice = experiment: Acute toxicity test; type: in vivo; details: male ICR mice, 2000 mg/kg subcutaneous, 5 animals
Method: Five weeks old male ICR mice (CLEA JAPAN, INC. 29–34 g, 5 animals in each group) were fasted for 4 hours, and 666 mg/mL of a suspension which was prepared by adding saline:polyethylene glycol 400:ethanol (5:4:1) to 2-[4-(2-hydroxyethyl)benzyl]phenyl β-D-glucopyranoside (the compound described in Example 10) was subcutaneously administered at the dose of 3 mL/kg (2000 mg/kg).

IC50 (human SGLT2) | SMILES | Amount of urinary glucose excretion [1] | Death until 24 hours after the administration (ICR mice)
– | COc1ccc(Cc2ccccc2O[C@@H]2O[C@H](CO)[C@@H](O)[C@H](O)[C@H]2O)cc1 [Example 1, 2-(4-Methoxybenzyl)phenyl β-D-glucopyranoside] | 27.4 mg | –
140 nM | CCCOc1ccc(Cc2ccc(CO)cc2O[C@@H]2O[C@H](CO)[C@@H](O)[C@H](O)[C@H]2O)cc1 [Example 7, 5-Hydroxymethyl-2-(4-propoxybenzyl)phenyl β-D-glucopyranoside] | 109.1 mg | –
8.1 nM | CCc1ccc(Cc2ccc(CO)cc2O[C@@H]2O[C@H](CO)[C@@H](O)[C@H](O)[C@H]2O)cc1 [Example 8, 2-(4-Ethylbenzyl)-5-hydroxymethylphenyl β-D-glucopyranoside] | 238.9 mg | –
27 nM | OCCc1ccc(Cc2ccc(CO)cc2O[C@@H]2O[C@H](CO)[C@@H](O)[C@H](O)[C@H]2O)cc1 [Example 9, 2-[4-(2-Hydroxyethyl)benzyl]-5-hydroxymethylphenyl β-D-glucopyranoside] | – | –
75 nM | OCCCc1ccc(Cc2ccccc2O[C@@H]2O[C@H](CO)[C@@H](O)[C@H](O)[C@H]2O)cc1 [Example 11, 2-[4-(3-Hydroxypropyl)benzyl]phenyl β-D-glucopyranoside] | – | –

SMILES | IC50 (human SGLT2) | Amount of urinary glucose excretion [1] | Death until 24 hours after the administration (ICR mice)
OCCc1ccc(Cc2ccccc2O[C@@H]2O[C@H](CO)[C@@H](O)[C@H](O)[C@H]2O)cc1 [Example 10, 2-[4-(2-Hydroxyethyl)benzyl]phenyl β-D-glucopyranoside] | 210 nM | 69.5 mg | No death was observed
